Results published in patent US8835458B2 (Hanmi Science Co., Ltd, priority 2010, dated 2014).
Where a name gives a salt, the structure may show the parent alone. Read-outs that look alike come from different tables or passages of the source.

Legend:
[1] = system: MDA-MB-231 breast cancer cell lines; experiment: Evaluation of inhibition on cell growth (MTS); type: cell-based; conditions: Homo sapiens, MDA-MB-231, 120 hours
In short: (§1)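 GI50 values come from growth equations comparing treated, untreated and medium-only wells. Fibroblasts (Hs27, Balb/c3t3) got 72 h compound exposure with SRB read-out at 540 nm after TCA fixing. MDA-MB-231 got 120 h with MTS at 490 nm, across 10 μM˜0.1 nM.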

[2] = Toxicity to normal cells (SRB); type: cell-based, human; conditions: human, Hs27 fibroblasts (normal cell line)
In short: as §1

[3] = Toxicity to normal cells (SRB); type: cell-based, mouse; conditions: mouse, Balb/c3t3 fibroblasts (normal cell line), read-out: BalB/C (GI50)
In short: as §1

SMILES	GI50 [1] [µM]	GI50 at 72 h [2] [µM]	GI50 at 72 h [3] [µM]
CN[C@@H](C)C(=O)N[C@H](C(=O)N1CCC[C@H]1C(=O)Nc1cc2c(Nc3ccc(Cl)cc3F)ncnc2cc1OC)C(C)(C)C [Example 29, (S)—N-(4-(4-chloro-2-fluorophenylamino)-7-methoxyquinazolin-6-yl)-1-((S)-3,3-dimethyl-2-((S)-2-(methylamino)propanamido)butanoyl)pyrrolidine-2-carboxamide hydrochloride]	≤ 0.1	> 10	> 10
CN[C@@H](C)C(=O)N[C@H](C(=O)N1CCC[C@H]1C(=O)Nc1cc2c(Nc3ccc(NC(C)=O)cc3)ncnc2cc1OC)C(C)(C)C [Example 69, (S)—N-(4-(4-acetamidophenylamino)-7-methoxyquinazolin-6-yl)-1-((S)-3,3-dimethyl-2-((S)-2-(methylamino)propanamido)butanoyl)pyrrolidine-2-carboxamide]	≤ 0.1	> 10	> 10
CN[C@@H](C)C(=O)N[C@H](C(=O)N1CCC[C@H]1C(=O)Nc1cc2c(Nc3ccc(F)c(Cl)c3F)ncnc2cc1O[C@@H]1CCOC1)C(C)(C)C [Example 16, (S)—N-(4-(3-chloro-2,4-difluorophenylamino)-7-((R)-tetrahydrofuran-3-yloxy)quinazolin-6-yl)-1-((S)-3,3-dimethyl-2-((S)-2-(methylamino)propanamido)butanoyl)pyrrolidine-2-carboxamide hydrochloride]	0.1 to 1	> 10	> 10
CN[C@@H](C)C(=O)N[C@H](C(=O)N1CCC[C@H]1C(=O)Nc1cc2c(Nc3cccc(Cl)c3F)ncnc2cc1OC)C(C)(C)C.Cl [Example 7, hydrochloride]	≤ 0.1	> 10	> 10
CN[C@@H](C)C(=O)N[C@H](C(=O)N1CCC[C@H]1C(=O)Nc1cc2c(Nc3ccc(N(C)C)cc3)ncnc2cc1OC)C(C)(C)C [Example 64, (S)-1-((S)-3,3-dimethyl-2-((S)-2-(methylamino)propanamido)butanoyl)-N-(7-methoxy-4-(4-dimethylamino)phenylamino)quinazolin-6-yl)pyrrolidine-2-carboxamide dihydrochloride]	≤ 0.1	> 10	> 10
CN[C@@H](C)C(=O)N[C@H](C(=O)N1CCC[C@H]1C(=O)Nc1cc2c(Nc3cccc(OC)c3)ncnc2cc1OC)C(C)(C)C [Example 57, (S)-1-((S)-3,3-dimethyl-2-((S)-2-(methylamino)propanamido)butanoyl)-N-(7-methoxy-4-(3-methoxyphenylamino)quinazolin-6-yl)pyrrolidine-2-carboxamide hydrochloride]	≤ 0.1	> 10	> 10
CN[C@@H](C)C(=O)N[C@H](C(=O)N1CCC[C@H]1C(=O)Nc1ccc2ncnc(Nc3cccc(Cl)c3F)c2c1)C(C)(C)C [Example 4, (S)—N-(4-(3-chloro-2-fluorophenylamino)quinazolin-6-yl)-1-((S)-3,3-dimethyl-2-((S)-2-(methylamino)propanamido)butanoyl)pyrrolidine-2-carboxamide hydrochloride]	0.1 to 1	> 10	> 10
CN[C@@H](C)C(=O)N[C@H](C(=O)N1CCC[C@H]1C(=O)Nc1cc2c(Nc3ccc4c(c3)CCC4)ncnc2cc1OC)C(C)(C)C [Example 52, (S)—N-(4-(2,3-dihydro-1H-inden-5-ylamino)-7-methoxyquinazolin-6-yl)-1-((S)-3,3-dimethyl-2-((S)-2-(methylamino)propanamido)butanoyl)pyrrolidine-2-carboxamide hydrochloride]	≤ 0.1	> 10	> 10
CN[C@@H](C)C(=O)N[C@H](C(=O)N1CCC[C@H]1C(=O)Nc1cc2c(N3CCCCC3)ncnc2cc1OC)C(C)(C)C [Example 24, (S)-1-((S)-3,3-dimethyl-2-((S)-2-(methylamino)propanamido)butanoyl)-N-(7-methoxy-4-(piperidin-1-yl)quinazolin-6-yl)pyrrolidine-2-carboxamide hydrochloride]	≤ 0.1	> 10	> 10

Continued, in another order:

GI50 [1] [µM]	SMILES	GI50 at 72 h [2] [µM]	GI50 at 72 h [3] [µM]
≤ 0.1	CN[C@@H](C)C(=O)N[C@H](C(=O)N1CCC[C@H]1C(=O)Nc1cc2c(Nc3cc(NC(C)=O)ccc3Cl)ncnc2cc1OC)C(C)(C)C [Example 75, (S)—N-(4-(5-acetamino-2-chlorophenylamino)-7-methoxyquinazolin-6-yl)-1-((S)-3,3-dimethyl-2-((S)-2-(methylamino)propanamido)butanoyl)pyrrolidine-2-carboxamide]	> 10	> 10
≤ 0.1	CN[C@@H](C)C(=O)N[C@H](C(=O)N1CCC[C@H]1C(=O)Nc1cc2c(Nc3ccccc3N3CCOCC3)ncnc2cc1OC)C(C)(C)C [Example 47, (S)-1-((S)-3,3-dimethyl-2-((S)-2-(methylamino)propanamido)butanoyl)-N-(7-methoxy-4-(2-morpholinophenylamino)quinazolin-6-yl)pyrrolidine-2-carboxamide]	> 10	> 10
≤ 0.1	C#CCO[C@H](C)[C@H](NC(=O)[C@H](C)NC)C(=O)N1CCC[C@H]1C(=O)Nc1cc2c(Nc3ccc(F)c(Cl)c3F)ncnc2cc1OC [Example 45, (S)—N-(4-(3-chloro-2,4-difluorophenylamino)-7-methoxyquinazolin-6-yl)-1-((2S,3R)-2-((S)-2-(methylamino)propanamido)-3-(prop-2-ynyloxy)butanoyl)pyrrolidine-2-carboxamide hydrochloride]	> 10	> 10
≤ 0.1	CN[C@@H](C)C(=O)N[C@H](C(=O)N1CCC[C@H]1C(=O)Nc1cc2c(Nc3ccccc3OC)ncnc2cc1OC)C(C)(C)C [Example 30, (S)—N-(4-(2-methoxyphenylamino)-7-methoxyquinazolin-6-yl)-1-((S)-3,3-dimethyl-2-((S)-2-(methylamino)propanamido)butanoyl)pyrrolidine-2-carboxamide hydrochloride]	> 10	> 10
≤ 0.1	CN[C@@H](C)C(=O)N[C@H](C(=O)N1CCC[C@H]1C(=O)Nc1cc2c(Nc3ccc(F)c(Cl)c3F)ncnc2cc1O)C(C)(C)C [Example 43, (S)—N-(4-(3-chloro-2,4-difluorophenylamino)-7-hydroxyquinazolin-6-yl)-1-((S)-3,3-dimethyl-2-((S)-2-(methylamino)propanamido)butanoyl)pyrrolidine-2-carboxamide]	> 10	> 10
≤ 0.1	CCN1CCN(c2ccc(Nc3ncnc4cc(OC)c(NC(=O)[C@@H]5CCCN5C(=O)[C@@H](NC(=O)[C@H](C)NC)C(C)(C)C)cc34)cc2C(F)(F)F)CC1 [Example 70, (S)-1-((S)-3,3-dimethyl-2-((S)-2-(methylamino)propanamido)butanoyl)-N-(4-(4-(4-ethylpiperazin-1-yl)-3-(trifluoromethyl)phenylamino)-7-methoxyquinazolin-6-yl)pyrrolidine-2-carboxamide dihydrochloride]	> 10	> 10
